Assay results from patent publication US11324741B2, “Methods for treating visceral fat conditions” (Orexigen Therapeutics, Inc., priority 2008, dated 2022).

Assays:
Type in all cases: in vivo, human
Subjects [1] = assay: Metabolic parameters (Example 2, Table 5); conditions: Table 5, Metabolic Parameters
Procedure: (§1) Subjects (n=117) received one of six treatments: two placebos (P+P), placebo and naltrexone (P+Nal), bupropion and placebo (Bup+P), bupropion and naltrexone 48 mg (Bup+Nal 48), bupropion and naltrexone 32 mg (Bup+Nal 32), or bupropion and naltrexone 16 mg (Bup+Nal 16).
(§2) The average change in visceral body mass is shown in FIG. 1 for the four treatments. […] Statistically significant improvements were also observed in several important metabolic parameters including: plasma glucose, serum insulin and plasma triglycerides.

Subjects [2] = assay: DEXA body scan and multi-slice CT scan of body fat and visceral fat at baseline and 6 months (Example 2); design: LS Mean (SE)^, Visceral Adipose Mass / Change from Baseline Mean (SD), Visceral Adipose Mass / LS Mean (SE)^, Total Body Adipose Mass / Change from Baseline Mean (SD), Total Body Adipose Mass: unit not given here; conditions: for Change from Baseline Mean (SD), Total Body Adipose Mass: DEXA; for Change from Baseline Mean (SD), Total Body Adipose Mass / Change from Baseline Mean (SD), Visceral Adipose Mass: baseline to 6 months; for Change in Waist Circumference (cm): Table 2, titled Baseline Weight, BMI and Weight Circumference; for Change in Waist Circumference (%) vs. placebo: Table 2; for LS Mean (SE)^, Total Body Adipose Mass / LS Mean (SE)^, Visceral Adipose Mass: change from baseline; for Change from Baseline Mean (SD), Visceral Adipose Mass: multi-slice CT
Procedure: as §1
The mass of selective visceral loss can be calculated based on total fat and the volume of visceral fat.
as §2
The percentage of this decrease was similar in magnitude in both visceral and overall adipose tissue.

[3] = tested on: healthy, non-diabetic, obese subjects; assay: Double-blind, placebo-controlled multi-center trial, 24 weeks of treatment (Example 1); conditions: for Fasting Glucose / Insulin (mcU/mL) / Triglyceride / Waist (cm) / Weight (%): obese subjects; for Weight (%): naltrexone 48 mg qd, bupropion 400 mg, or 32/400 mg combination; for Visceral fat (%): subset with DEXA and multislice CT scans
Procedure: A double-blind, placebo-controlled multi-center trial was conducted with 285 healthy, non-diabetic, obese subjects. The subjects were administered either bupropion 200 mg bid, placebo (P), naltrexone 48 mg qd (N1), or bupropion 400 mg with naltrexone 32 mg qd (BN2). 182 subjects completed 24 weeks of treatment. A subset of 60 subjects had dual energy X-ray absorptometry (DEXA) and multislice CT scans to measure body fat, lean tissue and visceral fat (American Diabetes Association Annual Meeting 2007).
The groups were matched at baseline.

Compound | Plasma Glucose (Subjects [1]) [mg/dL] | Serum Insulin (uU/mL) (Subjects [1]) | Triglycerides (Subjects [1]) [mg/dL] | Change from Baseline Mean (SD), Total Body Adipose Mass (Subjects [2]) | Change in Waist Circumference (cm) (Subjects [2]) | Change in Waist Circumference (%) vs. placebo (Subjects [2]) [%] | LS Mean (SE)^, Total Body Adipose Mass (Subjects [2]) | LS Mean (SE)^, Visceral Adipose Mass (Subjects [2]) | Change from Baseline Mean (SD), Visceral Adipose Mass (Subjects [2]) | Fasting Glucose [3] [mg/dL] | Insulin (mcU/mL) [3] [mcU/mL] | Triglyceride [3] [mg/dL] | Waist (cm) [3] [cm] | Weight (%) [3] [%] | Visceral fat (%) [3] [%]
CC(NC(C)(C)C)C(=O)c1cccc(Cl)c1 (stereo not drawn) [Bupropion, bupropion] | 3.5 ± 1.5 | −0.5 ± 1.1 | -18.4 ± 9.0 | −4.1 | 1.9 | 1.8 | −2.6 | 0.2 | −2.3 | 3.5 ± 1.5 | −0.5 ± 1.1 | -18.4 ± 9.0 | −2.9 ± 6.0 | −3.14 ± 0.7 | −2.3 ± 5.1
O=C1CC[C@@]2(O)[C@H]3Cc4ccc(O)c5c4[C@@]2(CCN3CC2CC2)[C@H]1O5 [Naltrexone, naltrexone] | 3.4 ± 1.7 | 1.7 ± 1.3 | -17.6 ± 10.4 | −3.2 | −1.5 | −1.4 | −1.5 | 3.5 | −0.1 | 3.4 ± 1.7 | 1.7 ± 1.3 | -17.6 ± 10.4 | −3.8 ± 12.7 | −1.74 ± 0.9 | −0.1 ± 8.7
